Experimental data taken from patent publication US5922755A, “Immunomodulator, cell adhesion inhibtor, and agent for treating, and preventing autoimmune diseases” (Toyama Chemical Co., Ltd., priority 1993, dated 1999).

Experiments:
[1] = tested on: delayed-type hypersensitivity; assay: Delayed-type hypersensitivity potentiated in mice by cyclophosphamide pretreatment (SRBC-induced paw edema); assay type: in vivo, BALB/c male mice; conditions: Mus musculus, po, 120 h, read-out: Delayed-type paw edema inhibitions; for inhibition in vivo at 100 mg/kg: 100 mg/kg p.o. once a day for 5 days; for inhibition in vivo at 10 mg/kg: 10 mg/kg p.o. once a day for 5 days; for inhibition in vivo at 30 mg/kg: 30 mg/kg p.o. once a day for 5 days
Method: The effect of the test compounds on the delayed-type hypersensitivity. Delayed-type hypersensitivity in potentiated in mice by pretreatment with cyclophosphamide was carried out in accordance with the method of P. H. Lagrange et al., Journal of Experimental Medicine, Vol.139, pp.1529-1539(1974). In brief, BALB/c male mice (8 weeks old, 6 to 8 mice per group) were pretreated with intraperitoneal injection of 75 mg/kg cyclophosphamide. Four days after the injection, 0.2 ml SRBC (sheep red blood cells) suspension (5×10^7 cells/ml) was intravenously sensitized. Three days after the sensitization; delayed-type hypersensitive responses were induced with intradermally injection of 0.05 ml SRBC suspension (8×10^9 cells/ml) to the left hind paw. After 24 hours, the mice were killed and both hind paws were cut off at the ankle to determine the weight of the paw. The SRBC-induced edema was measured as the difference between the left and right paw weights. The inhibitory percentage in paw edema produced by the compound treatment was expressed relative to the edema from the control mice. The test compounds were suspended in 0.5% carboxymethylcellulose (CMC) solution and were administered p.o. once a day for 5 days from 2 days prior to the sensitization. 0.5 % CMC solution instead of the test compounds was administered to the control mice.

[2] = tested on: experimental allergic encepharomyelitis (EAE); assay: Experimental allergic encepharomyelitis (EAE); assay type: in vivo, Lewis female rats; conditions: Rattus norvegicus, po, 432 h, day 0 to 13, cumulative score for 18 days, rats, read-out: Inhibition of clinical score; for inhibition in vivo at 100 mg/kg: 100 mg/kg p.o. once a day; for inhibition in vivo at 30 mg/kg: 30 mg/kg p.o. once a day
Method: Effect of the test compounds on experimental allergic encep-haromyelitis. Experimental allergic encepharomyelitis (EAE) is a prototype for cell-mediated autoimmune diseases, and has been widely used as an animal model of multiple sclerosis. According to the method described by Deguchi et al., Brain and Nerve, Vol.42, pp.391-397(1990), EAE was induced by using Lewis female rats (5 rats per group). […] 0.5 % CMC solution instead of the test compound was administered to the control rats. The cumulative score of the symptoms for 18 days was obtained and the inhibitory percentage in the cumulative score produced by the test compound group was expressed relative to the cumulative score from the control group.

[3] = tested on: hemolytic plaque forming cell (PFC) response; assay: Hemolytic plaque forming cell (PFC) response, SRBC sensitization; assay type: in vivo, BDF1 male mice; conditions: for PFC No./spleen: mean ± S.E.
[4] = tested on: very late antigen-4 (VLA-4); assay: Expression of VLA-4 on lymphocytes from EAE rats (flow cytometry); assay type: in vivo, rat; conditions: 100 mg/kg, ten days after immunization, control 29.9
Method: Effect of the compounds on the expression of cell adhesion molecule (very late antigen-4:VLA-4) in EAE rats.
VLA-4 is one of the cell adhesion molecules which may be involved in the migration of lymphocytes. The effect of the compounds on the expression of VLA-4 on lymphocytes from EAE rats was examined. […] The leukocyte fraction was isolated from 5ml of the blood by density gradient centrifugation. 5×10^5of the leukocytes were suspended in 0.5 ml of phosphate buffered saline (PBS) containing 0.1 % bovine serum albumin and then reacted with 5 μl of mouse anti-rat VLA-4 antibo dy. After incubation at 4° C. for 1 hour, the cells were reacted with fluorescence isothiocyanate-conjugated sheep anti-mouse immunoglobulin for a further 30 min. The cells were washed with PBS and were analyzed on flow cytometry. The lymphocyte population was isolated to construct on based a forward and 90° light scatter. The results were expressed as a percentage of VLA-4 positive cell number to the lymphocyte number.

CD11b = assay: Enhanced expression of CD11b in HL-60 cells stimulated by PMA (flow cytometry); assay type: cell-based, human; conditions: 10 μg/ml; HL-60, 24 hours; mean ± S.E., 6 measurements; control 82.2 ± 4.9
Method: Effect of the test compounds on the enhanced expression of cell adhesion molecule CD11b in HL-60 (human promyelocytic leukemia cell line)stimulatedby phorbol myristate acetate (PMA).
CD11b is the α-chain of cell adhesion molucule Mac-1, which is expressed in the activation of monocytes. The effect of the test compounds on the expression of CD11b on monocytes, HL-60 cells was analyzed. In brief, 5×10^6 HL-60 cells were suspended in 2 ml of RPMI-1640 containing 10% fetal calf serum (FCS) in each well of a 12-well multiplate, and then PMA ([…] final concentration) and the test compound were added to themedium. After incubation at 37° C. for 24 hours in an atmosphere containig 5% CO2, the cells were collected and was hed with PBS. 3×10^3 HL-60 cells were resuspended in 300 μl PBS(containing 1% FCS) and incubated with 5 μl of phycoerythrin-conjugated mouse anti-human CD11b antibody. After 1 hour incubation at 4° C., the cells were washed with PBS. The cells were analyzed on flow cytometry, and the results were expressed as the enhanced percentage of CD11b positive cells in the treated group relative to the PMA-untreated group.

[5] = 2 × 10^6 cells sensitization, 10 mg/kg p.o. for 3 days
[6] = 2 × 10^8 cells sensitization, 10 mg/kg p.o. for 3 days
[7] = 2 × 10^6 cells sensitization, 1 mg/kg p.o. for 3 days
[8] = 2 × 10^6 cells sensitization, 100 mg/kg p.o. for 3 days
[9] = 2 × 10^8 cells sensitization, 1 mg/kg p.o. for 3 days
[10] = 2 × 10^8 cells sensitization, 100 mg/kg p.o. for 3 days

SMILES: CC(C)(S)[C@@H](N)C(=O)O [D-PENICILLAMINE, D-penicillamine, reference compound]
- inhibition in vivo at 100 mg/kg [1]: -3%
- inhibition in vivo at 100 mg/kg [2]: -10%

SMILES: C[C@]12C=CC(=O)C=C1CC[C@@H]1[C@@H]2[C@@H](O)C[C@@]2(C)[C@H]1CC[C@]2(O)C(=O)CO [PREDNISOLONE, prednisolone, reference compound]
- inhibition in vivo at 10 mg/kg [1]: 44%
- PFC number, percentage of control group [3, 5]: 81 PERCENTAGE
- PFC No./spleen [3, 5]: 3.97 ± 0.78 ×10^3
- PFC number, percentage of control group [3, 6]: 7 PERCENTAGE
- PFC No./spleen [3, 6]: 17 ± 3 ×10^3

SMILES: O=C(O)c1cc(/N=N/c2ccc(S(=O)(=O)Nc3ccccn3)cc2)ccc1O [SULFASALAZINE, Sulfasalazine, reference compound]
- inhibition in vivo at 100 mg/kg [1]: 5%
- inhibition in vivo at 300 mg/kg ([2]; 300 mg/kg p.o. once a day): 1%

SMILES: CS(=O)(=O)Nc1cc2occ(NC=O)c(=O)c2cc1Oc1ccccc1 [compound No. 1, 3-formylamino-7-methylsulfonylamino-6-phenoxy-4H-1-benzopyran-4-one]
- inhibition in vivo at 10 mg/kg [1]: 12%
- inhibition in vivo at 30 mg/kg [1]: 27%
- inhibition in vivo at 100 mg/kg [1]: 39%
- PFC number, percentage of control group [3, 7]: 145 PERCENTAGE
- PFC No./spleen [3, 7]: 7.06 ± 1.17 ×10^3
- PFC number, percentage of control group [3, 5]: 146 PERCENTAGE
- PFC No./spleen [3, 5]: 7.13 ± 0.52 ×10^3
- PFC number, percentage of control group [3, 8]: 111 PERCENTAGE
- PFC No./spleen [3, 8]: 5.40 ± 0.49 ×10^3
- PFC number, percentage of control group [3, 9]: 963 PERCENTAGE
- PFC No./spleen [3, 9]: 231 ± 18 ×10^3
- PFC number, percentage of control group [3, 6]: 92 PERCENTAGE
- PFC No./spleen [3, 6]: 221 ± 17 ×10^3
- PFC number, percentage of control group [3, 10]: 54 PERCENTAGE
- PFC No./spleen [3, 10]: 129 ± 20 ×10^3
- inhibition in vivo at 1 mg/kg ([2]; 1 mg/kg p.o. once a day): 21%
- inhibition in vivo at 100 mg/kg [2]: 67%
- Percentage of VLA-4 positive cell (mean) [4]: 12.0 PERCENTAGE
- CD11b increased rate of expression (CD11b): 49.9 ± 1.8%

SMILES: CS(=O)(=O)Nc1cc2occc(=O)c2cc1Oc1ccccc1 [compound No. 2, 7-methylsulfonylamino-6-phenoxy-4H-1-benzopyran-4-one]
- inhibition in vivo at 100 mg/kg [1]: 17%

SMILES: CS(=O)(=O)Nc1cc2occc(=O)c2cc1Oc1ccc(F)cc1F [compound No. 3, 6-(2,4-difluorophenoxy)-7-methylsulfonylamino-4H-1-benzopyran-4-one]
- inhibition in vivo at 30 mg/kg [1]: 48%
- inhibition in vivo at 30 mg/kg [2]: 86%

SMILES: CS(=O)(=O)Nc1cc2occ(C(N)=O)c(=O)c2cc1Oc1ccccc1 [compound No. 4, 3-carbamoyl-7-methylsulfonylamino-6-phenoxy-4H-1-benzopyran-4-one]
- inhibition in vivo at 100 mg/kg [1]: 41%
- inhibition in vivo at 30 mg/kg [2]: 50%

SMILES: Cc1oc2cc(NS(C)(=O)=O)c(Oc3ccccc3)cc2c(=O)c1C(N)=O [compound No. 5, 3-carbamoyl-2-methyl-7-methylsulfonylamino-6-phenoxy-4H-1-benzopyran-4-one]
- inhibition in vivo at 100 mg/kg [1]: 16%

SMILES: CN(C=O)c1coc2cc(NS(C)(=O)=O)c(Oc3ccccc3)cc2c1=O [compound No. 6, 3-(N-formyl-N-methyl)amino-7-methylsulfonylamino-6-phenoxy-4H-1-benzopyran-4-one]
- inhibition in vivo at 100 mg/kg [1]: 17%
- inhibition in vivo at 30 mg/kg [2]: 66%

SMILES: CS(=O)(=O)Nc1cc2occ(C(=O)O)c(=O)c2cc1Oc1ccccc1 [compound No. 7, 3-carboxy-7-methylsulfonylamino-6-phenoxy-4H-1-benzopyran-4-one]
- inhibition in vivo at 100 mg/kg [1]: 16%
- inhibition in vivo at 30 mg/kg [2]: 50%

SMILES: CSc1coc2cc(NS(C)(=O)=O)c(Oc3ccccc3)cc2c1=O [compound No. 8, 3-methylthio-7-methylsulfonyl amino-6-phenoxy-4H-1-benzopyran-4-one]
- inhibition in vivo at 100 mg/kg [1]: 21%
- inhibition in vivo at 30 mg/kg [2]: 17%

SMILES: CS(=O)(=O)Nc1cc2occ(NC=O)c(=O)c2cc1Nc1ccc(F)cc1F [compound No. 9, 6-(2,4-difluorophenylamino)-3-formylamino-7-methylsulfonylamino-4H-1-benzopyran-4-one]
- inhibition in vivo at 100 mg/kg [1]: 28%
- inhibition in vivo at 30 mg/kg [2]: 50%

SMILES: CS(=O)(=O)Nc1cc2occ(C(N)=O)c(=O)c2cc1Nc1ccc(F)cc1F [compound No. 10, 3-carbamoyl-6-(2,4-difluorophenylamino)-7-methylsulfonylamino-4H-1-benzopyran-4-one]
- inhibition in vivo at 100 mg/kg [1]: 20%
- inhibition in vivo at 30 mg/kg [2]: 42%

SMILES: Cc1cc(=O)c2cc(Oc3ccccc3)c(NS(C)(=O)=O)cc2o1 [compound No. 11, 2-methyl-7-methyl sulfonylamino-6-phenoxy-4H-1-benzopyran-4-one]
- inhibition in vivo at 30 mg/kg [2]: 52%

SMILES: CS(=O)(=O)Nc1cc2occ(NC=O)c(=O)c2cc1Nc1ccccc1F [compound No. 12, 6-(2-fluorophenylamino)-3-formylamino-7-methylsulfonylamino-4H-1-benzopyran-4-one]
- inhibition in vivo at 30 mg/kg [2]: 67%
